Consider four molecules from patent publication US4622388A, “Des-2-serine, 3 asparagine-calcitonin” (Armour Pharmaceutical Company, priority 1985, dated 1986).

Positions of bridges follow the written chain, without caps; N, C: chain ends. Residues, ends and D or L forms follow the SMILES beside them.

The conditions of experiment [1]: literature value, Monikawa et al.; cited from earlier work.
The subject of experiment [2] is serum calcium concentration. The experiment can be described thus: Biological assay of calcitonin analogs in vivo: reduction of serum calcium concentration, 2x2 parallel line assay. The arrangement: species or system Rats. The procedure: The biological potency of des-2-serine, 3-asparagine-salmon calcitonin was determined by comparing the reduction of serum calcium concentration which followed administration by graded doses of des-Ser^2, […] -SCT and synthetic salmon calcitonin standard. Rats were divided into four groups of seven animals, and each group was assigned at random to a dose of standard or test solution. Low and high doses were chosen from the linear portion of the dose-response curve. For the salmon calcitonin standard, the values were 0.7 and 2.1 ng. peptide/100 g. body weight (BW). This dose approximates 3 and 9 MU/100 g. BW. Peptides were given by subcutaneous injection (0.2 ml/100 g. BW) and blood was withdrawn 1 hour later for serum calcium determination. Sera are processed and analyzed within two hours of collection. […]. Results were analyzed by a 2×2 parallel line assay [Gaddum, J. H. J. Pharm. Pharmacol., 6, 345 (1953)]. The standard salmon calcitonin used was independently determined to contain greater than 4,000 IU/mg. des-Ser^2, Asn^3 -SCT assayed at 4350 IU/mg.

As for “eel calcitonin [synthetic eel calcitonin]”, the hypocalcemic potency entry in experiment [1] is recorded as “around 4300 IU/mg”.
Consider “(1,7-α-L-amino-suberic acid)eel calcitonin”, for which the hypocalcemic potency result in experiment [1] is given as “about 3400 IU/mg”.
In the case of `CC(C)C[C@H](NC(=O)[C@H](CCCCN)NC(=O)CNC(=O)[C@H](CC(C)C)NC(=O)[C@@H](NC(=O)[C@@H]1CSSC[C@H](N)C(=O)N[C@@H](CO)C(=O)N[C@@H](CC(N)=O)C(=O)N[C@@H](CC(C)C)C(=O)N[C@@H](CO)C(=O)N[C@@H]([C@@H](C)O)C(=O)N1)C(C)C)C(=O)N[C@@H](CO)C(=O)N[C@@H](CCC(N)=O)C(=O)N[C@@H](CCC(=O)O)C(=O)N[C@@H](CC(C)C)C(=O)N[C@@H](Cc1c[nH]cn1)C(=O)N[C@@H](CCCCN)C(=O)N[C@@H](CC(C)C)C(=O)N[C@@H](CCC(N)=O)C(=O)N[C@H](C(=O)N[C@@H](Cc1ccc(O)cc1)C(=O)N1CCC[C@H]1C(=O)N[C@@H](CCCNC(=N)N)C(=O)N[C@H](C(=O)N[C@@H](CC(N)=O)C(=O)N[C@H](C(=O)NCC(=O)N[C@@H](CO)C(=O)NCC(=O)N[C@H](C(=O)N1CCC[C@H]1C(N)=O)[C@@H](C)O)[C@@H](C)O)[C@@H](C)O)[C@@H](C)O` [standard salmon calcitonin, Salmon calcitonin], the “potency of the standard salmon calcitonin, independently determined” value in experiment [2] (standard used in the assay, independently determined) is given as “greater than 4,000 IU/mg”.
With `CC(C)C[C@H](NC(=O)[C@H](CCCCN)NC(=O)CNC(=O)[C@H](CC(C)C)NC(=O)[C@@H](NC(=O)[C@@H]1CSSC[C@H](N)C(=O)N[C@@H](CC(C)C)C(=O)N[C@@H](CO)C(=O)N[C@@H]([C@@H](C)O)C(=O)N1)C(C)C)C(=O)N[C@@H](CO)C(=O)N[C@@H](CCC(N)=O)C(=O)N[C@@H](CCC(=O)O)C(=O)N[C@@H](CC(C)C)C(=O)N[C@@H](Cc1c[nH]cn1)C(=O)N[C@@H](CCCCN)C(=O)N[C@@H](CC(C)C)C(=O)N[C@@H](CCC(N)=O)C(=O)N[C@H](C(=O)N[C@@H](Cc1ccc(O)cc1)C(=O)N1CCC[C@H]1C(=O)N[C@@H](CCCNC(=N)N)C(=O)N[C@H](C(=O)N[C@@H](CC(N)=O)C(=O)N[C@H](C(=O)NCC(=O)N[C@@H](CO)C(=O)NCC(=O)N[C@H](C(=O)N1CCC[C@H]1C(N)=O)[C@@H](C)O)[C@@H](C)O)[C@@H](C)O)[C@@H](C)O` [des-Ser^2, Asn^3 -SCT, des-2-serine, 3-asparagine-salmon calcitonin] (H-CLSTCVLGKLSQELHKLQTYPRTNTGSGTP-NH2; disulfide 1-5), in experiment [2] (rats, subcutaneous injection, blood withdrawn 1 hour later, vs synthetic salmon calcitonin standard), the “biological potency (reduction of serum calcium concentration)” value stood at 4350 IU/mg.
